Data taken from patent US7750148B2, “Intermediate compound for the production of β-lactamase-resistant cephalosporin ester compounds and salts thereof” (Zhejiang Yongning Pharmaceutical Factory, priority 2003, dated 2010).
Values after ≈ are worked out from the molar mass of the structure shown. Like-named read-outs stand apart in the source and are kept apart here.

Assays:
[1] = system: Staphylococcus aureus 26003; test: In vitro antibacterial activity (MIC, agar double dilution); assay type: cell-based
Source text: (§1) tested samples YR-1, YR-2 were the ones prepared in example 1 and example 5 respectively, control samples were cefetamet sodium (CTM), cefuroxime sodium (CRX), cefetamet sodium+sulbactam sodium (CTM+SBT) (molar ratio 1:1), cefuroxime+sulbactam sodium (CRX+SBT) (molar ratio 1:1). All control samples (have been sold on the market) were supplied by Zhejiang Yongning pharmaceutical factory.
(§2) Staphylococcus aureus 26003, Diplococcus lanceolatus 31002, E. coli 44102, Shigella sonnet 51081, Shigella bogdii 51313, Shigella flexneri 51573, Proteus mirabilis 49005, Bacillus proteus 49085, Proteus morganii 49086, Pseudomonas aeruginosa 10124, Bacillus pneumoniae 46101, Salmonella enteritidis 50041, Salmonella typhi 50097, Citrobacter 48017, Candida ciferii 41002 were supplied by Shanghai Hygienic and Antiepidemic Station.
(§3) Mueller-Hinton Agar (M.H) culture medium, batch number 20040528 (Shanghai Reagent Supply Research Center, China Diarrhea Disease Control).
(§4) Adopted agar double dilution, inoculated using multipoint inoculator, inoculated 10^5CFU/ML each point, cultured for 24 hours at 37° C., observed and recorded the results, set the least concentration of the antibacterial drug that can inhibit bacteria growth as the minimum inhibitory concentration (MIC).

Shigella flexneri 51573 = test: as above; assay type: cell-based
Source text: as §1, §2, §3, §4

Salmonella typhi 50097 = test: as above; assay type: cell-based; details: 10^5CFU/ML each point, 24 hours at 37° C.
Source text: as §1, §2, §3, §4

[2] = system: Diplococcus lanceolatus 31002; test: as above; assay type: cell-based
Source text: as §1, §2, §3, §4

Shigella bogdii 51313 = test: as above; assay type: cell-based
Source text: as §1, §2, §3, §4

Proteus mirabilis 49005 = test: as above; assay type: cell-based
Source text: as §1, §2, §3, §4

[3] = system: Salmonella enteritidis 50041; test: as above; assay type: cell-based
Source text: as §1, §2, §3, §4

[4] = system: Pseudomonas aeruginosa 10124; test: as above; assay type: cell-based
Source text: as §1, §2, §3, §4

Candida ciferii 41002 = test: as above; assay type: cell-based
Source text: as §1, §2, §3, §4

Shigella sonnet 51081 = test: as above; assay type: cell-based
Source text: as §1, §2, §3, §4

Bacillus proteus 49085 = test: as above; assay type: cell-based
Source text: as §1, §2, §3, §4

Citrobacter 48017 = test: as above; assay type: cell-based
Source text: as §1, §2, §3, §4

[5] = system: Bacillus pneumoniae 46101; test: as above; assay type: cell-based
Source text: as §1, §2, §3, §4

E. coli 44102 = test: as above; assay type: cell-based
Source text: as §1, §2, §3, §4

Bacillus aerogenes 45102 = test: as above; assay type: cell-based
Source text: as §1
(§5) Staphylococcus epidermidis 26069 and Bacillus aerogenes 45102 were supplied by Beijing Drug & Biology Product Appraisal Bureau.
as §3, §4

[6] = system: Staphylococcus epidermidis 26069; test: as above; assay type: cell-based; details: Staphylococcus epidermidis 26069, 10^5CFU/ML each point, 24 hours at 37° C.
Source text: as §1, §5, §3, §4

Proteus morganii 49086 = test: as above; assay type: cell-based; parameters: MIC (as restated in the conclusions): unit not given here; details: for antibacterial activities enhanced versus CTM or CRX used solely: YR-1 vs CTM, YR-2 vs CRX
Source text: as §1, §2, §3, §4

[7] = system: Diplococcus lanceolatus 0031; test: as above; assay type: cell-based; details: Diplococcus lanceolatus 0031, 10^5CFU/ML each point, 24 hours at 37° C.
Source text: as §1
Diplococcus lanceolatus 0031 was supplied by Shanghai First People's Hospital.
as §3, §4

[8] = system: Bacillus proteus 49085, Proteus morganii 49086; test: Ex vivo antibacterial activity experiment after mouse is administered, conclusions (strains not separated); assay type: in vivo
Source text: the sources of tested samples (YR-1, YR-2) and control samples (CTM, CRX, CTM+SBT 1:1 and CRX+SBT 1:1) are the same as above. Bacillus proteus 49085, Proteus morganii 49086, inoculated 10^5CFU/ML each dish. Mueller-Hinton Agar (M.H) culture medium, batch number 000707 (Shanghai Reagent Supply Research Center, China Diarrhea Disease Control). Strain: Kunming mice; source: Animal Facility of Shanghai Institute of Pharmaceutical Industry; certificate number: Hudonghezhengzi No. 107; animal numbers: 120; Sex: same number of male and female mice; Body weight: 18-21 g; fast time: 16 hours. Group 1: CTM, CRX, CTM+SBT 1:1, CRX+SBT 1:1 were given at a dosage of 500 mg/kg intravenously, collecting blood at 10 minutes, 30 minutes, 1 hour, 2 hours, 4 hours, 8 hours after administration. Group 2: […] Kunming mice were randomly divided into several groups according to body weight of empty stomach and sex. Collecting blood of three mice at different time point, anticoagulated with heparin, centrifugated and separated plasma, quantitative spotting, semi-quantitated antibacterial activity according to the size of bacterial inhibition ring.

[9] = mice, intragastric administration 1000 mg/kg
[10] = read-out: MIC of the drug to bacteria

## 5-thia-1-aza-bicyclo [4,2,0] octane-2-ene-2-carboxylic acid, 7-[[(2-amino-4-thiazolyl) (methoxy imine) acetyl]amino]-3-methyl-8-oxo-, [[3,3-dimethyl-4,4-dioxy-7-oxo-4-thia-1-aza-bicyclo [3,2,0] heptane-2-group]carbonyloxy]oxy]methyl ester [YR-1]
[1]; Staphylococcus aureus 26003, 10^5CFU/ML each point, 24 hours at 37° C.
  MIC of the drug to bacteria: 100 µg/mL
Shigella flexneri 51573; Shigella flexneri 51573, 10^5CFU/ML each point, 24 hours at 37° C.
  MIC of the drug to bacteria: 0.39 µg/mL
Salmonella typhi 50097
  MIC of the drug to bacteria: 1.56 µg/mL
[2]; Diplococcus lanceolatus 31002, 10^5CFU/ML each point, 24 hours at 37° C.
  MIC of the drug to bacteria: 100 µg/mL
Shigella bogdii 51313; Shigella bogdii 51313, 10^5CFU/ML each point, 24 hours at 37° C.
  MIC of the drug to bacteria: 0.39 µg/mL
Proteus mirabilis 49005; Proteus mirabilis 49005, 10^5CFU/ML each point, 24 hours at 37° C.
  MIC of the drug to bacteria: 0.098 µg/mL
[3]; Salmonella enteritidis 50041, 10^5CFU/ML each point, 24 hours at 37° C.
  MIC of the drug to bacteria: 1.56 µg/mL
[4]; Pseudomonas aeruginosa 10124, 10^5CFU/ML each point, 24 hours at 37° C.
  MIC of the drug to bacteria: 100 µg/mL
Candida ciferii 41002; Candida ciferii 41002, 10^5CFU/ML each point, 24 hours at 37° C.
  MIC of the drug to bacteria: 0.78 µg/mL
Shigella sonnet 51081; Shigella sonnet 51081, 10^5CFU/ML each point, 24 hours at 37° C.
  MIC of the drug to bacteria: 0.39 µg/mL
Bacillus proteus 49085; Bacillus proteus 49085, 10^5CFU/ML each point, 24 hours at 37° C.
  MIC of the drug to bacteria: 0.195 µg/mL
Citrobacter 48017; Citrobacter 48017, 10^5CFU/ML each point, 24 hours at 37° C.
  MIC of the drug to bacteria: 1.56 µg/mL
[5]; Bacillus pneumoniae 46101, 10^5CFU/ML each point, 24 hours at 37° C.
  MIC of the drug to bacteria: 0.78 µg/mL
E. coli 44102; E. coli 44102, 10^5CFU/ML each point, 24 hours at 37° C.
  MIC of the drug to bacteria: 1.56 µg/mL
Bacillus aerogenes 45102; Bacillus aerogenes 45102, 10^5CFU/ML each point, 24 hours at 37° C.
  MIC of the drug to bacteria: 0.39 µg/mL
[6]
  MIC of the drug to bacteria: 50 µg/mL
Proteus morganii 49086; Proteus morganii 49086
  MIC (as restated in the conclusions): 0.78
  antibacterial activities enhanced versus CTM or CRX used solely: one hundred times
Proteus morganii 49086; Proteus morganii 49086, 10^5CFU/ML each point, 24 hours at 37° C.
  MIC of the drug to bacteria: 0.78 µg/mL
[7]
  MIC of the drug to bacteria: 50 µg/mL
[8]; in vivo, 1000 mg/kg
  blood drug concentrations: stable and persistent
[8]; [9]
  antibacterial activities in blood 8 hours after administration: can be detected
[8]; mouse, in vivo, 1000 mg/kg
  half-life period (compared with the intravenous controls): longer half-life period

## CON=C(C(=O)NC1C(=O)N2C(C(=O)OCOC(=O)C3N4C(=O)CC4S(=O)(=O)C3(C)C)=C(COC(N)=O)CSC12)c1ccco1 (stereo not shown) [YR-2, 5-thia-1-aza-bicyclo [4,2,0] octane-2-ene-2-carboxylic acid, 7-[[(2-furane (methoxy imine)acetyl)amino]-3-[[(aminocarbonyloxy)oxy]methyl]-8-oxo-, [[3,3-dimethyl-4,4-dioxy-7-oxo-4-thia-1-aza-bicyclo[3,2,0]heptane-2-group]carbonyloxy]oxy]methyl ester]
[1]; Staphylococcus aureus, 26003, 24 h, read-out: MIC of the drug to bacteria
  MIC: 6.25 µg/mL
Shigella flexneri 51573; Shigella flexneri, 51573, 24 h, read-out: MIC of the drug to bacteria
  MIC: 3.13 µg/mL
Salmonella typhi 50097; Salmonella enterica, read-out: MIC of the drug to bacteria
  MIC: 6.25 µg/mL
[2]; 24 h, read-out: MIC of the drug to bacteria
  MIC: 25 µg/mL
Shigella bogdii 51313; Shigella, 51313, 24 h, read-out: MIC of the drug to bacteria
  MIC: 1.56 µg/mL
Proteus mirabilis 49005; Proteus mirabilis, 49005, 24 h, read-out: MIC of the drug to bacteria
  MIC: 3.13 µg/mL
[3]; Salmonella enterica, ENTERITIDIS, 24 h, read-out: MIC of the drug to bacteria
  MIC: 12.5 µg/mL
[4]; Pseudomonas aeruginosa, 10124, 24 h, read-out: MIC of the drug to bacteria
  MIC: 100 µg/mL
Candida ciferii 41002; Candida, 41002, 24 h, read-out: MIC of the drug to bacteria
  MIC: 50 µg/mL
Shigella sonnet 51081; Shigella, 51081, 24 h, read-out: MIC of the drug to bacteria
  MIC: 1.56 µg/mL
Bacillus proteus 49085; Bacillus, 49085, 24 h, read-out: MIC of the drug to bacteria
  MIC: 0.78 µg/mL
Citrobacter 48017; Citrobacter, 48017, 24 h, read-out: MIC of the drug to bacteria
  MIC: 3.13 µg/mL
[5]; Klebsiella pneumoniae, 46101, 24 h, read-out: MIC of the drug to bacteria
  MIC: 12.5 µg/mL
E. coli 44102; Escherichia coli, 44102, 24 h, read-out: MIC of the drug to bacteria
  MIC: 12.5 µg/mL
Bacillus aerogenes 45102; Bacillus, 45102, 24 h, read-out: MIC of the drug to bacteria
  MIC: 6.25 µg/mL
[6]; [10]
  MIC: 0.78 µg/mL
Proteus morganii 49086; Morganella morganii, 49086, 24 h, read-out: MIC of the drug to bacteria
  MIC: 0.025 mg/mL
Proteus morganii 49086; Morganella morganii, 49086, read-out: MIC (as restated in the conclusions)
  MIC: 25 mg/mL (≈ 37.3 mM)
Proteus morganii 49086; Proteus morganii 49086
  antibacterial activities enhanced versus CTM or CRX used solely: four times
[7]; [10]
  MIC: 0.78 µg/mL
[8]; in vivo, 1000 mg/kg
  blood drug concentrations: stable and persistent
[8]; [9]
  antibacterial activities in blood 8 hours after administration: can be detected
  half-life period (compared with the intravenous controls): longer half-life period
